# Test results from ChEMBL document CHEMBL4699579, “A Peptidyl Inhibitor that Blocks Calcineurin-NFAT Interaction and Prevents Acute Lung Injury” (J Med Chem, 2020).
# Calls of active or inactive are those of the source. The rule behind the calls is not given here. Positions of bridges follow the written chain, without caps; N, C: chain ends. Non-standard residues stand in square brackets, D forms with d. Residues, ends and D or L forms follow the SMILES beside them. Chains are numbered I, II in the order given. *: point of attachment. Benzoyl(2,3-Cl2) = O=C(c1cccc(Cl)c1Cl)*; 2Nal = N[C@@H](Cc1ccc2ccccc2c1)C(=O)O; Tle = CC(C)(C)[C@H](N)C(=O)O; AEEA = NCCOCCOCC(=O)O
# Key:
# [1] = Half life in human serum; format: ADME, cell-free
# HeLa = assay: Toxicity in human HeLa cells assessed as reduction in cell viability up to 25 uM incubated for 72 hrs by MTT assay; format: cell-based
# Mus musculus [2] = assay: Anti-inflammatory activity in BALB/c mouse model of LPS-induced ALI assessed as reduction in LPS-induced TNFalpha in BALF at 5 mg/kg dosed via intranasal insuffIation pre-treated 2 hrs before LPS stimulation for 16 hrs; format: functional, organism-based; conditions: dose mg/kg 5-10, time 18.0 hrs
# Mus musculus [3] = assay: Anti-inflammatory activity in BALB/c mouse model of LPS-induced ALI assessed as reduction in LPS-induced IL6 in BALF at 5 mg/kg dosed via intranasal insuffIation pre-treated 2 hrs before LPS stimulation for 16 hrs; format: functional, organism-based; conditions: dose mg/kg 5-10, time 18.0 hrs
# Mus musculus [4] = assay: Anti-inflammatory activity in BALB/c mouse model of LPS-induced ALI assessed as reduction in LPS-induced extravasated BALF protein in BALF at 5 mg/kg dosed via intranasal insuffIation pre-treated 2 hrs before LPS stimulation for 16 hrs; format: functional, organism-based; conditions: dose mg/kg 5-10, time 18.0 hrs
# Mus musculus [5] = assay: Anti-inflammatory activity in BALB/c mouse model of LPS-induced ALI assessed as reduction in LPS-induced TNFalpha in plasma at 5 mg/kg dosed via intranasal insuffIation pre-treated 2 hrs before LPS stimulation for 16 hrs; format: functional, organism-based; conditions: dose mg/kg 5-10, time 18.0 hrs
# Mus musculus [6] = assay: Anti-inflammatory activity in BALB/c mouse model of LPS-induced ALI assessed as reduction in LPS-induced IL6 in plasma at 5 mg/kg dosed via intranasal insuffIation pre-treated 2 hrs before LPS stimulation for 16 hrs; format: functional, organism-based; conditions: dose mg/kg 5-10, time 18.0 hrs
# Mus musculus [7] = assay: Anti-inflammatory activity in BALB/c mouse model of LPS-induced ALI assessed as reduction in lung wet-to-dry ratios at 5 mg/kg dosed via intranasal insuffIation pre-treated 2 hrs before LPS stimulation for 16 hrs; format: functional, organism-based; conditions: dose mg/kg 5-10, time 18.0 hrs
# Mus musculus [8] = assay: Anti-inflammatory activity in BALB/c mouse model of LPS-induced ALI assessed as reduction in number of neutrophils BALF at 5 mg/kg dosed via intranasal insuffIation pre-treated 2 hrs before LPS stimulation for 16 hrs; format: functional, organism-based; conditions: dose mg/kg 5-10, time 18.0 hrs
# Mus musculus [9] = assay: Anti-inflammatory activity in BALB/c mouse model of LPS-induced ALI assessed as reduction in LPS-induced TNFalpha in BALF at 10 mg/kg dosed via intranasal insuffIation pre-treated 2 hrs before LPS stimulation for 16 hrs; format: functional, organism-based; conditions: time 18.0 hrs
# Mus musculus [10] = assay: Anti-inflammatory activity in BALB/c mouse model of LPS-induced ALI assessed as reduction in LPS-induced IL6 in BALF at 10 mg/kg dosed via intranasal insuffIation pre-treated 2 hrs before LPS stimulation for 16 hrs; format: functional, organism-based; conditions: time 18.0 hrs
# Mus musculus [11] = assay: Anti-inflammatory activity in BALB/c mouse model of LPS-induced ALI assessed as reduction in LPS-induced extravasated BALF protein in BALF at 10 mg/kg dosed via intranasal insuffIation pre-treated 2 hrs before LPS stimulation for 16 hrs; format: functional, organism-based; conditions: time 18.0 hrs
# Mus musculus [12] = assay: Anti-inflammatory activity in BALB/c mouse model of LPS-induced ALI assessed as reduction in LPS-induced TNFalpha in plasma at 10 mg/kg dosed via intranasal insuffIation pre-treated 2 hrs before LPS stimulation for 16 hrs; format: functional, organism-based; conditions: time 18.0 hrs
# Mus musculus [13] = assay: Anti-inflammatory activity in BALB/c mouse model of LPS-induced ALI assessed as reduction in LPS-induced IL6 in plasma at 10 mg/kg dosed via intranasal insuffIation pre-treated 2 hrs before LPS stimulation for 16 hrs; format: functional, organism-based; conditions: time 18.0 hrs
# Mus musculus [14] = assay: Anti-inflammatory activity in BALB/c mouse model of LPS-induced ALI assessed as reduction in lung wet-to-dry ratios at 10 mg/kg dosed via intranasal insuffIation pre-treated 2 hrs before LPS stimulation for 16 hrs; format: functional, organism-based; conditions: time 18.0 hrs
# Mus musculus [15] = assay: Anti-inflammatory activity in BALB/c mouse model of LPS-induced ALI assessed as reduction in number of neutrophils BALF at 10 mg/kg dosed via intranasal insuffIation pre-treated 2 hrs before LPS stimulation for 16 hrs; format: functional, organism-based; conditions: time 18.0 hrs
# Macrophage [16] = assay: Inhibition of calcineurin-NFATc3 interaction in mouse lung macrophages assessed as reduction in LPS-induced TNFalpha production at 0.01 to 10 uM pre-incubated 4 hrs before LPS stimulation for 8 hrs by ELISA; format: tissue-based; conditions: dose microM 0.01-10, time 12.0 hrs
# Macrophage [17] = assay: Inhibition of calcineurin-NFATc3 interaction in mouse lung macrophages assessed as reduction in LPS-induced IL6 production at 0.01 to 10 uM pre-incubated 4 hrs before LPS stimulation for 8 hrs by ELISA; format: tissue-based; conditions: dose microM 0.01-10, time 12.0 hrs
# [18] = Toxicity in mouse lung macrophages cells assessed as reduction in cell viability up to 25 uM incubated for 72 hrs by MTT assay; format: tissue-based; conditions: macrophage
# Jurkat = assay: Inhibition of Calcineurin in human Jurkat cells; format: cell-based
# [19] = Drug uptake in cytosol in human HeLa cells assessed as cytosolic delivery efficiency at 5 uM incubated for 2 hrs by floe cytometry relative to control; format: ADME, subcellular
# Macrophage [20] = assay: Inhibition of LPS-induced TNFalpha production in mouse lung macrophages at 10 uM pre-incubated 4 hrs before LPS stimulation for 8 hrs by ELISA; format: functional, cell-based; conditions: time 12.0 hrs
# Macrophage [21] = assay: Inhibition of LPS-induced IL6 production in mouse lung macrophages at 10 uM pre-incubated 4 hrs before LPS stimulation for 8 hrs by ELISA; format: functional, cell-based; conditions: time 12.0 hrs
# Macrophage [22] = assay: Inhibition of calcineurin-NFATc3 interaction in mouse bone marrow-derived macrophages assessed as reduction in LPS-induced NFATc3 nuclear translocation at 1 uM pre-incubated before LPS stimulation for 1 hr using biotinylated compound by immunofluorescence staining assay
SMILES,Activity (Mus musculus [2]),Activity (Mus musculus [3]),Activity (Mus musculus [4]),Activity (Mus musculus [5]),Activity (Mus musculus [6]),Activity (Mus musculus [7]),Activity (Mus musculus [8]),Activity (Mus musculus [9]),Activity (Mus musculus [10]),Activity (Mus musculus [11]),Activity (Mus musculus [12]),Activity (Mus musculus [13]),Activity (Mus musculus [14]),Activity (Mus musculus [15]),other results
"CC[C@H](C)[C@H](NC(=O)[C@@H](NC(=O)c1cccc(Cl)c1Cl)C(C)(C)C)C(=O)N[C@H](C(=O)N[C@H](C(=O)N[C@H](C(=O)N[C@@H](CCC(N)=O)C(=O)N[C@@H](Cc1c[nH]cn1)C(=O)N[C@H](CC(C)C)C(=O)N[C@@H](CO)C(=O)NCCOCCOCC(=O)N[C@@H](CCCCNC(=O)CC[C@@H]1NC(=O)[C@@H](CCCNC(=N)N)NC(=O)[C@H](CCCNC(=N)N)NC(=O)[C@@H](CCCNC(=N)N)NC(=O)[C@H](CCCNC(=N)N)NC(=O)[C@H](Cc2ccc3ccccc3c2)NC(=O)[C@@H](Cc2ccccc2)NC1=O)C(N)=O)[C@@H](C)O)[C@@H](C)CC)C(C)(C)C (I: {Benzoyl(2,3-Cl2)}-[Tle]I[Tle]ITQH[dL]S[AEEA]K-NH2 / II: cyclo([2Nal]R[dR]R[dR]E[dF]); amide I:11-II:6)",inactive,inactive,inactive,inactive,inactive,inactive,inactive,inactive,inactive,inactive,inactive,inactive,inactive,inactive,half-life [1]: > 24 h; Activity (HeLa): Non-Toxic; inhibition (Macrophage [16]): inactive; inhibition (Macrophage [17]): inactive; Activity [18]: Non-Toxic
CC[C@H](C)[C@H](NC(=O)[C@@H](NC(=O)c1cccc(Cl)c1Cl)C(C)(C)C)C(=O)N[C@H](C(=O)N[C@H](C(=O)N[C@H](C(=O)N[C@@H](CCC(N)=O)C(=O)N[C@@H](Cc1c[nH]cn1)C(=O)N[C@H](CC(C)C)C(=O)N[C@@H](CO)C(=O)NCCOCCOCC(=O)N[C@@H](CCCCNC(=O)CC[C@@H]1NC(=O)[C@@H](CCCNC(=N)N)NC(=O)[C@H](CCCNC(=N)N)NC(=O)[C@@H](CCCNC(=N)N)NC(=O)[C@H](CCCNC(=N)N)NC(=O)[C@H](Cc2ccc3ccccc3c2)NC(=O)[C@@H](Cc2ccccc2)NC1=O)C(N)=O)[C@@H](C)O)[C@@H](C)CC)C(C)(C)O,–,–,–,–,–,–,–,–,–,–,–,–,–,–,inhibition (Jurkat): Active
N=C(N)NCCC[C@@H]1NC(=O)[C@H](Cc2ccc3ccccc3c2)NC(=O)[C@@H](Cc2ccccc2)NC(=O)[C@H](CCC(N)=O)NC(=O)[C@@H](CCCNC(=N)N)NC(=O)[C@H](CCCNC(=N)N)NC(=O)[C@@H](CCCNC(=N)N)NC1=O (cyclo([2Nal]R[dR]R[dR]Q[dF])),–,–,–,–,–,–,–,–,–,–,–,–,–,–,Drug uptake [19]: 62%
CC(C)[C@H](NC(=O)[C@H](C)NC(=O)[C@@H](NC(=O)[C@@H]1CCCN1C(=O)[C@H](Cc1cnc[nH]1)NC(=O)[C@@H]1CCCN1C(=O)CNC(=O)COCCOCCNC(=O)CC[C@@H]1NC(=O)[C@@H](CCCNC(=N)N)NC(=O)[C@H](CCCNC(=N)N)NC(=O)[C@@H](CCCNC(=N)N)NC(=O)[C@H](CCCNC(=N)N)NC(=O)[C@H](Cc2ccc3ccccc3c2)NC(=O)[C@@H](Cc2ccccc2)NC1=O)C(C)C)C(=O)N[C@@H](C)C(=O)N[C@@H](C)C(=O)NCC(=O)N1CCC[C@H]1C(=O)N[C@@H](Cc1c[nH]cn1)C(=O)N[C@@H](CCC(=O)O)C(=O)N[C@@H](CCC(=O)O)C(=O)N[C@@H](CCCCN)C(N)=O,inactive,inactive,inactive,inactive,inactive,inactive,inactive,inactive,inactive,inactive,inactive,inactive,inactive,inactive,inhibition (Macrophage [20]): Active; inhibition (Macrophage [21]): Active; inhibition (Macrophage [22]): inactive
